pIC50: −log10 of the molar value. Where two headings read alike, the source gives them in different places.
What was measured:
[1] = molecular target: recombinant human NF-kappaB-inducing kinase (NIK/MAP3K14) (Homo sapiens, UniProt Q99558); assay: Biological Assay B: inhibition of auto-phosphorylation of recombinant human NIK/MAP3K14 (AlphaScreen), performed at 2 locations; type: biochemical; conditions: averaged values
Outline: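 Run at two separate sites: 1 h, 25° C. reactions containing 0.2 nM GST-NIK, 25 microM ATP and compound (1% DMSO) in Tris pH 7.5/MgCl2 buffer. Phosphorylation detected via anti-phospho-IKK Ser176/180 antibody with AlphaScreen beads; IC50 fitted to % inhibition.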

[2] = test system: P-IKKα levels in L363 (NIK translocated multiple myeloma) cells; assay: Biological Assay C: effect of compounds on P-IKKα levels in L363 (NIK translocated multiple myeloma) cells, performed at 2 locations; type: cell-based, human; conditions: averaged values
Method: Effect of Compounds on P-IKKα Levels in L363 (NIK Translocated Multiple Myeloma) Cells
All compounds tested were dissolved in DMSO and further dilutions were made in culture medium. Final DMSO concentration was 1% (v/v) in cell assays. The human L363 cells (ATCC) were cultured in RPMI 1640 medium supplemented with GlutaMax and 10% fetal calf serum (PAA). Cells were routinely maintained at densities of 0.2×10^6 cells per ml-1×10^6 cells per ml at 37° C. in a humidified 5% CO2 atmosphere. Cells were passaged twice a week splitting back to obtain the low density. Cells were seeded in 96 well plates (Nunc 167008) at 2×10^6 per ml media in a volume of 75 μl per well plus 25 μl […] recombinant human B-cell activating factor (BAFF/BLyS/TNFSF13B). Seeded cells were incubated at 37° C. in a humidified 5% CO2 atmosphere for 24 hr. Drugs and/or solvents were added (20 μl) to a final volume of 120 μl. Following 2 hr treatment plates were removed from the incubator and cell lysis was achieved by the addition of 30 μl 5× lysis buffer followed by shaking on a plate shaker at 4° C. for 10 min. At the end of this incubation lysed cells were centrifuged at 800×g for 20 min at 4° C. and the lysate was assessed for P-IKKα levels by sandwich immuno-assay carried out in anti-rabbit antibody coated Mesoscale plates. Within an experiment, the results for each treatment were the mean of 2 replicate wells. For initial screening purposes, compounds were tested using an 8 point dilution curve (serial 1:3 dilutions). For each experiment, controls (containing MG132 and BAFF but no test drug) and a blank incubation (containing MG132 and BAFF and 1 μM ADS125117, a test concentration known to give full inhibition) were run in parallel. The blank incubation value was subtracted from all control and sample values. To determine the IC50 a sigmoidal curve was fitted to the plot of % inhibition of control P-IKKα levels versus Log10 compound concentration.
Assay C was performed at 2 different locations.
Data for the compounds of the invention in the above assays are provided in Table A (the values in Table are averaged values over all measurements on all batches of a compound; values as IC50 (nM)). (‘n.c.’ means not calculated: ‘Co.’ means compound)

[3] = location 1, AlphaScreen auto-phosphorylation, read-out: Assay B location 1 IC50
[4] = location 2, AlphaScreen auto-phosphorylation, read-out: Assay B location 2 IC50
[5] = Homo sapiens, L-363, location 1, L363 cells, P-IKKα levels, read-out: Assay C location 1 IC50
[6] = location 1, NIK auto-phosphorylation, AlphaScreen, read-out: Assay B location 1 IC50
[7] = Homo sapiens, L-363, location 2, L363 cells, P-IKKα levels, read-out: Assay C location 2 IC50
[8] = location 2, NIK auto-phosphorylation, AlphaScreen, read-out: Assay B location 2 IC50

Chain of recombinant human NF-kappaB-inducing kinase (NIK/MAP3K14) (Q99558 whole entry): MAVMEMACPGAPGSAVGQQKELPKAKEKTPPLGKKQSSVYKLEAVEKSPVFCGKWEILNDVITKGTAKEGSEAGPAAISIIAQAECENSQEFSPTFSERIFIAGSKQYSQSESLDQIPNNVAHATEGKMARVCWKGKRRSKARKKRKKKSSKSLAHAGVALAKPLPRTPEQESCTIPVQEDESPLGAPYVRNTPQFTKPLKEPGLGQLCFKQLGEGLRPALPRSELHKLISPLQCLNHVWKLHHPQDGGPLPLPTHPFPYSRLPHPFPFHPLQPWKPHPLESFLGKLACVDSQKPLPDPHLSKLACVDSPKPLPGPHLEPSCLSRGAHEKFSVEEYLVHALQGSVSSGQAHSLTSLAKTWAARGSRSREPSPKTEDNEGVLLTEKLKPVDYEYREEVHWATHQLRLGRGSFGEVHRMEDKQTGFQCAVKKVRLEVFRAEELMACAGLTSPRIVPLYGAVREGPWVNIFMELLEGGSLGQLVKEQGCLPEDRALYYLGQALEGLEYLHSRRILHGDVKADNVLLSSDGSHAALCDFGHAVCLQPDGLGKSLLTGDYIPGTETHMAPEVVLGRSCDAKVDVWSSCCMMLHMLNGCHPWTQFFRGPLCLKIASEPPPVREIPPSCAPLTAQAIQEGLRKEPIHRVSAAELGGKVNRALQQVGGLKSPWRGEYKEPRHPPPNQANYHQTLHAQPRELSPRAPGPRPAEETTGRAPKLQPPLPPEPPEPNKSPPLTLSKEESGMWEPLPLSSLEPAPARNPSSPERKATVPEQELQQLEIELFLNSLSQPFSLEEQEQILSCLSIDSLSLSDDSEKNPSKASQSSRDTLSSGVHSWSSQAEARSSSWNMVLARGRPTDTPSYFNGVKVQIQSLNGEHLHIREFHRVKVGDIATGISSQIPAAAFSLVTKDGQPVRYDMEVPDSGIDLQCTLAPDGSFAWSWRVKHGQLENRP

Row | SMILES | pIC50 [1, 3] | pIC50 [1, 4] | pIC50 [2, 7] | other results
1 | COc1cc(N2CC3(CCOCC3)C2)c(Cl)cc1Nc1nccc(-c2cnc3c(c2)C(C)(CO)CN3)n1 (single isomer, unassigned) [Compound 3S] | 8.17 | 8.89 | – | pIC50 [2, 5]: 7.76
2 | COc1cc(N2CCOCC2)c(C#N)cc1Nc1nccc(-c2cnc3c(c2)C(C)(CO)CN3)n1 (single isomer, unassigned) [Compound 4S] | – | 8.64 | – | pIC50 [2, 5]: ~6.82
3 | CN(C)CCOc1cc(N2CCOCC2)c(Cl)cc1Nc1nccc(-c2cnc3c(c2)C(C)(CO)CN3)n1 (single isomer, unassigned) [Compound 272] | 6.82 | 6.91 | – | pIC50 [2, 5]: 5.04
4 | COc1cc(N2CCC(O)CC2)c(Cl)cc1Nc1nccc(-c2cnc3c(c2)C(C)(CO)CN3)n1 (single isomer, unassigned) [Compound 343] | – | – | – | pIC50 [1, 6]: 7.72; pIC50 ([2]; location 1, P-IKKα levels in L363 cells, 2 hr treatment, read-out: Assay C location 1 IC50): ~5.13
5 | COc1cc(C(=O)NC2CCOCC2)ccc1Nc1ncc(F)c(-c2cnc3c(c2)C(C)(CO)CN3)n1 (stereo not shown) [Compound 2] | 8.26 | – | 7.16 | –
6 | COc1cc(N2CCOCC2)c(C#N)cc1Nc1nccc(-c2cnc3c(c2)C(C)(CO)CN3)n1 (stereo not shown) [Compound 4] | 7.98 | 8.54 | – | pIC50 [2, 5]: 6.86
7 | COc1cc(C(=O)NC2CCOCC2)c(Cl)cc1Nc1nccc(-c2cnc3c(c2)C(C)(CO)CN3)n1 (stereo not shown) [Compound 8] | 8.34 | 8.80 | – | pIC50 [2, 5]: 8.08
8 | COc1cc(S(C)(=O)=O)c(F)cc1Nc1nccc(-c2cnc3c(c2)C(C)(CO)CN3)n1 (stereo not shown) [Compound 12] | 8.27 | 8.80 | – | pIC50 [2, 5]: 7.57
9 | COc1cc(N2CCN(C(C)C)CC2)c(Cl)cc1Nc1nccc(-c2cnc3c(c2)C(C)(CO)CN3)n1 (stereo not shown) [Compound 14] | ~8.52 | 9.05 | – | pIC50 [2, 5]: 7.71
10 | CN1CCC(Oc2ccc(Cl)cc2Nc2nccc(-c3cnc4c(c3)C(C)(CO)CN4)n2)CC1 (stereo not shown) [Compound 15] | 8.07 | – | – | pIC50 [2, 5]: 6.32
11 | Cc1cc(C(=O)NC2CCN(C)CC2)ccc1Nc1nccc(-c2cnc3c(c2)C(C)(C)CN3)n1 [Compound 35] | – | – | 6.07 | –
12 | Cc1cc(C(=O)NC2CCOCC2)ccc1Nc1nccc(-c2cnc3c(c2)C(C)(C)CN3)n1 [Compound 36] | – | – | 6.21 | –
13 | CC(=O)NCc1cccc(Nc2nccc(-c3cnc4c(c3)C(C)(C)CN4)n2)c1C [Compound 42] | – | – | 6.78 | –
14 | CC(=O)NCc1ccc(C)c(Nc2nccc(-c3cnc4c(c3)C(C)(C)CN4)n2)c1 [Compound 43] | – | – | 6.55 | –
15 | COc1cc(C(=O)N2CCC(OC)C2)ccc1Nc1nccc(-c2cnc3c(c2)C(C)(CO)CN3)n1 (stereo not shown) [Compound 136] | – | 8.48 | 6.64 | pIC50 [2, 5]: 6.45
16 | COc1cc(C(=O)NC2CCOC2)ccc1Nc1nccc(-c2cnc3c(c2)C(C)(CO)CN3)n1 (stereo not shown) [Compound 137] | – | 8.30 | 6.46 | pIC50 [2, 5]: 6.47

Row | SMILES | pIC50 [1, 3] | pIC50 [1, 4] | pIC50 [2, 7] | other results
17 | COc1cc(C(=O)N2CCCC2)ccc1Nc1nccc(-c2cnc3c(c2)C(C)(CO)CN3)n1 (stereo not shown) [Compound 138] | – | 8.20 | 6.63 | –
18 | COc1cc(C(=O)N2CCCCC2)ccc1Nc1nccc(-c2cnc3c(c2)C(C)(CO)CN3)n1 (stereo not shown) [Compound 139] | 8.16 | 8.16 | 6.99 | pIC50 [2, 5]: 6.78
19 | CC1(CO)CNc2ncc(-c3ccnc(Nc4ccc(C(=O)NC5CCOCC5)cc4OC(F)F)n3)cc21 (stereo not shown) [Compound 140] | – | 8.35 | 5.97 | –
20 | COc1cc(C(=O)N2CCCCCC2)ccc1Nc1nccc(-c2cnc3c(c2)C(C)(CO)CN3)n1 (stereo not shown) [Compound 141] | – | 7.99 | 6.83 | –
21 | COc1cc(C(=O)NC2CCCOCC2)ccc1Nc1nccc(-c2cnc3c(c2)C(C)(CO)CN3)n1 (stereo not shown) [Compound 142] | – | 7.87 | 6.69 | pIC50 [2, 5]: 6.51
22 | COc1cc(C(=O)N2CCN(C)CC2)ccc1Nc1nccc(-c2cnc3c(c2)C(C)(CO)CN3)n1 (stereo not shown) [Compound 143] | 7.77 | 7.84 | 6.65 | –
23 | COc1cc(CNC(C)=O)ccc1Nc1nccc(-c2cnc3c(c2)C(C)(CO)CN3)n1 (stereo not shown) [Compound 145] | – | 8.14 | 6.49 | –
24 | COc1cc(C(=O)NC2CCOCC2)ccc1Nc1nccc(-c2cnc3c(c2)C(C)(CC#N)CN3)n1 (stereo not shown) [Compound 147] | – | 8.39 | 7.28 | –
25 | CCN1CCN(C(=O)c2cc(OC)c(Nc3nccc(-c4cnc5c(c4)C(C)(CO)CN5)n3)cc2Cl)CC1 (stereo not shown) [Compound 328] | – | 8.82 | – | –
26 | CCN1CCN(c2cc(OC)c(Nc3nccc(-c4cnc5c(c4)C(C)(C)CN5)n3)cc2Cl)CC1 [Compound 329] | 8.42 | 8.77 | – | –
27 | COc1cc(N2CCC(N(C)C)CC2)c(Cl)cc1Nc1nccc(-c2cnc3c(c2)C(C)(C)CN3)n1 [Compound 330] | 8.44 | 9.15 | – | –
28 | COc1cc(N2CCC(O)CC2)c(Cl)cc1Nc1nccc(-c2cnc3c(c2)C(C)(C)CN3)n1 [Compound 336] | – | – | – | pIC50 [1, 8]: 8.44
29 | CCN1CCN(Cc2cc(OC)c(Nc3nccc(-c4cnc5c(c4)C(C)(CO)CN5)n3)cc2Cl)CC1 (stereo not shown) [Compound 337] | – | – | – | pIC50 [1, 8]: 8.80
30 | COc1cc(CO)c(Cl)cc1Nc1nccc(-c2cnc3c(c2)C(C)(C)CN3)n1 [Compound 339] | – | – | – | pIC50 [1, 8]: 8.25
31 | COc1cc(OCCN2CCOCC2)c(Cl)cc1Nc1nccc(-c2cnc3c(c2)C(C)(CO)CN3)n1 (stereo not shown) [Compound 340] | – | – | – | pIC50 [1, 8]: 8.59
32 | COc1cc(N2CC3(CCOCC3)C2)c(Cl)cc1Nc1ncc(F)c(-c2cnc3c(c2)C(C)(CO)CN3)n1 (stereo not shown) [Compound 346] | – | – | – | pIC50 [1, 6]: 8.13

Second part, led by results:

Row | pIC50 [1, 3] | pIC50 [1, 4] | pIC50 [2, 7] | SMILES | other results
33 | – | 8.96 | – | COc1cc(CO)c(Cl)cc1Nc1nccc(-c2cnc3c(c2)C(C)(CO)CN3)n1 (stereo not shown) [Compound 332] | –
34 | – | 8.66 | – | COc1cc(N2CCC(C)(O)CC2)c(Cl)cc1Nc1nccc(-c2cnc3c(c2)C(C)(CO)CN3)n1 (stereo not shown) [Compound 333] | –
35 | 7.92 | 8.00 | – | CCOC1CN(c2cc(OC)c(Nc3nccc(-c4cnc5c(c4)C(C)(CO)CN5)n3)cc2Cl)C1 (stereo not shown) [Compound 357] | –
36 | 8.11 | 8.43 | – | Cc1cc(N2CCOCC2)c(Cl)cc1Nc1nccc(-c2cnc3c(c2)C(C)(CO)CN3)n1 (stereo not shown) [Compound 361] | –
37 | 8.16 | 8.44 | – | CC1(CO)CNc2ncc(-c3ccnc(Nc4cc(Cl)c(N5CCOCC5)cc4Cl)n3)cc21 (stereo not shown) [Compound 362] | –
38 | 7.75 | 7.97 | – | Cc1cc(N2CCOCC2)c(C#N)cc1Nc1nccc(-c2cnc3c(c2)C(C)(CO)CN3)n1 (stereo not shown) [Compound 363] | –
39 | 7.99 | 8.16 | – | CC1(CO)CNc2ncc(-c3ccnc(Nc4cc(C#N)c(N5CCOCC5)cc4Cl)n3)cc21 (stereo not shown) [Compound 364] | –
40 | 7.86 | 7.96 | – | CC1(CO)CNc2ncc(-c3ccnc(Nc4cc(F)c(N5CCOCC5)cc4Cl)n3)cc21 (stereo not shown) [Compound 365] | –
41 | 7.64 | 7.89 | – | Cc1cc(N2CCOCC2)c(F)cc1Nc1nccc(-c2cnc3c(c2)C(C)(CO)CN3)n1 (stereo not shown) [Compound 366] | –
42 | 7.06 | 7.66 | – | COCCOc1cc(N2CCOCC2)c(Cl)cc1Nc1nccc(-c2cnc3c(c2)C(C)(CO)CN3)n1 (stereo not shown) [Compound 367] | –
43 | 6.72 | 6.95 | – | COCCOc1cc(N2CCOCC2)c(F)cc1Nc1nccc(-c2cnc3c(c2)C(C)(CO)CN3)n1 (stereo not shown) [Compound 368] | –
44 | 6.91 | 7.19 | – | COCCOc1cc(N2CCOCC2)c(C#N)cc1Nc1nccc(-c2cnc3c(c2)C(C)(CO)CN3)n1 (stereo not shown) [Compound 369] | –
45 | 5.79 | 6.01 | – | CN(C)CCOc1cc(N2CCOCC2)c(F)cc1Nc1nccc(-c2cnc3c(c2)C(C)(CO)CN3)n1 (stereo not shown) [Compound 370] | –
46 | 6.36 | 6.68 | – | CN(C)CCOc1cc(N2CCOCC2)c(Cl)cc1Nc1nccc(-c2cnc3c(c2)C(C)(CO)CN3)n1 (stereo not shown) [Compound 371] | –
47 | 7.87 | 8.80 | – | COc1cc(N2CC3(CCOCC3)C2)c(C#N)cc1Nc1nccc(-c2cnc3c(c2)C(C)(CO)CN3)n1 (stereo not shown) [Compound 372] | –
